From patent publication US20130023555A1, “KINASE INHIBITOR WITH IMPROVED SOLUBILITY PROFILE” (Abbott Laboratories, priority 2011, published 2013)
In brackets after ≈: the same amount, converted by molar mass.

How the values were obtained:
cKIT = biological target: T1, cKIT (Homo sapiens, UniProt P10721); experiment: HTRF in vitro kinase assay, cKIT; format: biochemical; settings: 1 mM ATP
T1 construct: GST
Description: To determine the activity of the various kinases, a homogenous time-resolved fluorescence (HTRF) in vitro kinase assay was used. (Mathis, G., HTRF(R) Technology. J Biomol Screen, 1999. 4(6): p. 309-314; Alfred J. Kolb, Paul V. Kaplita, David J. Hayes, Young-Whan Park, Christine Pernell, John S. Major and Gerard Mathis, Drug Discovery Today, 1998, 3, 333-342.)
For example for KDR, cKIT, FLT1, CSF1R and FTL3, purified enzyme was mixed with 0.5 μM N-biotinylated substrate (Biotin-Ahx-[…]-amide (SEQ. ID. 1)), various concentrations of inhibitor in reaction buffer (50 mM HEPES, pH 7.1, 10 mM MgCl2, 2 mM MnCl2, 0.1% BSA and 1 mM DTT, 40 μL final volume), ATP (1 mM final conc.) in a black 384-well plate. After 60 minutes incubation at room temperature, the reaction was quenched by addition of a buffered EDTA solution (final approximate concentrations: 30 mM EDTA, 0.1% BSA, 0.1% Triton X-100 and 0.24M KF) and a solution of revelation agents (to give 0.084 ng/well streptavidin-XL-665 (Cis-Bio) and 6.5 ng/well antiphsophotyrosine mAb PT66-K Europium kryptate) was added to the reaction mixture. The quenched reaction was allowed to stand at room temperature for 3 hours and was then read in a time-resolved fluorescence detector (InVision, Perkin-Elmer) at 620 nm and 665 nm sequentially with excitation. The ratio between the signal of 620 nm and 665 nm was used in the calculation of the IC50.

CYP3A4 = biological target: T2, CYP3A4 (Homo sapiens, UniProt P08684); experiment: CYP 3A4 Assay (Luc, luminescence, human liver microsomes); format: in vitro ADME; settings: human liver microsomes 0.4 mg/mL, substrate LUC-LIPA
T2 construct: The incubations consisted of human liver microsomal protein at 0.4 mg/ml; from tissue; host or cells: human liver microsomes
T2 sequence (P08684 whole entry): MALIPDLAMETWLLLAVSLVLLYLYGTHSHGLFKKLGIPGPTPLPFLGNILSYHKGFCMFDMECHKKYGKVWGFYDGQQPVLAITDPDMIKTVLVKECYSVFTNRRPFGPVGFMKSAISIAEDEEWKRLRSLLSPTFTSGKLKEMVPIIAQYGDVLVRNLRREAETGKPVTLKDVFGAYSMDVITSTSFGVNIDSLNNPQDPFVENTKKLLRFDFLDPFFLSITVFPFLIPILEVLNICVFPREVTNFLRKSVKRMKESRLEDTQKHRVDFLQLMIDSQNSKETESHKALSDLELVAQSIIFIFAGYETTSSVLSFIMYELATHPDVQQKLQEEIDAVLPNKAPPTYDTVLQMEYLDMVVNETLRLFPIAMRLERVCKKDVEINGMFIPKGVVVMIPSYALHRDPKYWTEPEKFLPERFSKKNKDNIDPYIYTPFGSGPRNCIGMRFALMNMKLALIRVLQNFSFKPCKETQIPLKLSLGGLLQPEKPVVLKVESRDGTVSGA
Description: Each assay was preformed in ½ well plates. Test compounds were examined at six concentrations in DMSO that were serial diluted to: 2, 0.6, 0.2, 0.07, 0.02, and 0.007 mM (from left to right) and at 100×; 0.5 ul of these dilutions were added to two empty assay plates (resulting in final assay concentrations of 20, 6, 2, 0.7, 0.2, and 0.07 uM. The control and vehicle were added to the plate at 100× with the same dilution scheme.
The incubations consisted of human liver microsomal protein at 0.4 mg/ml in 100 mM KPO4 buffer, 125 uM NADPH and Regeneration mix in phosphate buffer at pH 7.4.
CYP3A4 requires a pre-incubation using the following recipe:
• CYP3A4—5 μM LUC-LIPA in 100 mM phosphate buffer pH 7.4 • Assay Procedure for CYP3A4: • 1. 40 uL of the Pre-incubation Mixture was added to all wells of the assay plates. • 2. Plates were pre-incubated for 10 minutes at 37° C., with shaking or rocking. (No pre-read is necessary for the luminescence assays CYP2C9 and CYP3A4). • 3. 10 μL of Substrate Solution was added to all wells of the assay plates. • 4. Plates were incubated for an additional 25 minutes at 37° C., with shaking or rocking. • 5. added 50 μl of stop/developer from respective kits, and incubated for 20 minutes to 2 hours with shaking at room temperature prior to reading. […]

CLND Solubility Assay = format: physicochemical; settings: aqueous buffer, kinetic from dmso stock; 35 μM compound in 10 mM phosphate buffer, pH 7.2
Description: Chemiluminescent nitrogen detection (CLND) method oxidized the analyte to nitrogen oxide that reacted with ozone to provide a photon of light and was a measure of how much compound was in solution. Compounds must contain nitrogens for this experiment. Nitrogen impurities present in the compound will cause falsely high results. • 1. Compound concentration tested was 35 μM in 10 mM phosphate buffer, 7.2. • 2. Compounds were tested in triplicate. • 3. Compound concentration was determined by comparing readings to a caffeine standard curve. One standard curve was run before and after every test plate. For 3 test plates, four standard curves were generated.
Experimental Procedure: • 1. 5 μl of 5 mM test compound in DMSO was added to three adjacent wells in a plate. • 2. 695 μl of 10 mM phosphate buffer, pH 7.2, was added to each well. • 3. The plates were sealed. • 4. The plates were allowed to sonicate for 1 hour. • 5. The plates were shook on a plate orbital shaker for up to 6 hours. • 6. The plates were spinned at 5000 rpm (6000×G) overnight. • 7. Standard curves were prepared by adding 5 μl of stock solutions to wells according to Caffeine Concentrations for Standard Curve table below. • 8. Buffer (10 mM phosphate buffer, pH 7.2, 695 μl) was added. • 9. The plates were sealed. • 10. The plates were loaded onto a TOC/CLND. • 11. The results were analyzed after the run was completed.
The solubility was determined by comparing the reading generated by analysis of the sample to the standard curve. The value was then divided by the number of nitrogens contained in the compound. Corrections for impurities during the synthesis were included in the number of nitrogens. The resulting value was the reported solubility.

[1] = Determination of Thermodynamic Solubility; format: physicochemical; settings: for solubility: thermodynamic from solid
Description: Aqueous pH 7.4 and PEG 300 samples were tested at 25° C. Excess amount of the bulk drug was weighed out and mixed with an aliquot of target media in a clear glass vial (n=3/solvent). The vial was capped, wrapped with aluminum foil, and tumbled in a 25° C. water bath. When equilibration was completed, the samples were removed from the water bath and the final pH was measured, if applicable. The samples were centrifuged at 25° C. at 3000 rpm for 20 minutes. The supernatant was filtered through 4 mm 0.45 μm PTFE syringe filters. The filtrate was assayed after appropriate dilution (no dilution required for aqueous samples). The concentration of the sample was calculated against a calibration curve for the compound.
Solubility in pH 7.4 buffer was carried out as described above, except samples were not centrifuged before filtration. All other experimental steps were the same. PEG 300 and PEG 400 solubility were done at ambient temperature. Excess amount of the bulk drug was weighed out and mixed with an aliquot of target media in a clear glass vial with a small stir bar (n=3). The vials were placed on the stirrer at ˜500 rpm and allowed to equilibrate over the weekend. Samples were filtered through 13 mm 0.45 μm GHP syringe filters. The filtrate was assayed after appropriate dilutions, and concentrations determined against a calibration curve for the compound.

T1 sequence (P10721 544-976 limits assumed): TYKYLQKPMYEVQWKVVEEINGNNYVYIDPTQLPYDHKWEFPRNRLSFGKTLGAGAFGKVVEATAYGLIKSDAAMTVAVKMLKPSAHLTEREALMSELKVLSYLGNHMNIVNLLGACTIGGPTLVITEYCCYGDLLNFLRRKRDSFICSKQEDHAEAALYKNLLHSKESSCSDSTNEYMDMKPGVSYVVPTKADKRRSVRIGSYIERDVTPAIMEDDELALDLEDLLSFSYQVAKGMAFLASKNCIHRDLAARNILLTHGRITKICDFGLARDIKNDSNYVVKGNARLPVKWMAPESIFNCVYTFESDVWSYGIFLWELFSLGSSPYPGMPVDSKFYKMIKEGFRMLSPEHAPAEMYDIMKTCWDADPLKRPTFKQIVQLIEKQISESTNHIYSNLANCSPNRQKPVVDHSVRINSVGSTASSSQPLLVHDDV

CCN(CC)CCCNC(=O)c1cnc(N)c2c(-c3ccc(NC(=O)Nc4cccc(F)c4)cc3)csc12 [Example 1, 4-amino-N-[3-(diethylamino)propyl]-3-(4-{[(3-fluorophenyl)carbamoyl]amino}phenyl)thieno[3,2-c]pyridine-7-carboxamide]
IC50 (cKIT): 35 nM | IC50 (CYP3A4): > 20000 nM | solubility (CLND Solubility Assay): 70.8 µM (≈ 37.8 µg/mL) | solubility ([1]; PEG 300, 25 °C, organic solvent or mixture, PEG 300, Example 2 at 25° C., Example 1 at ambient temperature, read-out: Solubility (PEG300)): 132 mg/mL (≈ 247 mM) | Solubility (PEG300) ([1]; PEG 300, Example 2 at 25° C., Example 1 at ambient temperature): >125 mg/mL | solubility ([1]; PEG 400, organic solvent or mixture, PEG 400, ambient temperature, read-out: Solubility PEG 400): 124 mg/mL (≈ 232 mM) | solubility ([1]; phosphate buffer, 25 °C, pH 7.4, aqueous buffer, 50 mM phosphate pH 7.4 buffer, 25° C., read-out: Solubility pH 7.4): 0.0171 mg/mL (≈ 0.032 mM)
